Laboratory results taken from ChEMBL document CHEMBL5728557, “Azetidine derivative, preparation method therefor, and use thereof” (2021).

Columns and labels:
[1] = molecular target: Voltage-gated inwardly rectifying potassium channel KCNH2 (Homo sapiens, UniProt Q12809); assay: Safety Test: The effect of test compounds on hERG potassium channel were determined using Predictor hERG Fluorescence Polarization Assay at concentrations of 3, 10, and 30 μM.
CYP2D6 = CYP2D6 (Homo sapiens, UniProt P10635); assay: (§1) As such, the compound of the present invention has no significant inhibitory effect on CYP1A2, CYP2D6 and CYP3A4, and thus has no safety issue caused by metabolism interactions among different drugs due to inhibition of the enzymes.
CYP3A4 = CYP3A4 (Homo sapiens, UniProt P08684); assay: as §1
Cytochrome P450 1A2 = molecular target: T1, Cytochrome P450 1A2 (Homo sapiens, UniProt P05177); assay: as §1
T1 sequence (P05177 whole entry): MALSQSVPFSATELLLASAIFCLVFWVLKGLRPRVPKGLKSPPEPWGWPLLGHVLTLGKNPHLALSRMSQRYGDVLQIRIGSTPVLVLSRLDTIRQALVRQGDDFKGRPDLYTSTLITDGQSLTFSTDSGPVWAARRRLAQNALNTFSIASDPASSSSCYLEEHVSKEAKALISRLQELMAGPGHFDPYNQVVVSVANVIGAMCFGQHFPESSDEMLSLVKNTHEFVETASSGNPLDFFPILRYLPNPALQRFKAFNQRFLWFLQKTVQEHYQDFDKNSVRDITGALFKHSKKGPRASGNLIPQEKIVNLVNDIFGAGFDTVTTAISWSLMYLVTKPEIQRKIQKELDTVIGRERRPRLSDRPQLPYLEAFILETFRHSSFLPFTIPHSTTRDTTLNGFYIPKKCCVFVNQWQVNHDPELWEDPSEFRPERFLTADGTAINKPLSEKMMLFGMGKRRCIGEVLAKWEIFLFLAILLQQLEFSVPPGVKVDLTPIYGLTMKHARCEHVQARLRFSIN

Chain of CYP3A4 (P08684 whole entry): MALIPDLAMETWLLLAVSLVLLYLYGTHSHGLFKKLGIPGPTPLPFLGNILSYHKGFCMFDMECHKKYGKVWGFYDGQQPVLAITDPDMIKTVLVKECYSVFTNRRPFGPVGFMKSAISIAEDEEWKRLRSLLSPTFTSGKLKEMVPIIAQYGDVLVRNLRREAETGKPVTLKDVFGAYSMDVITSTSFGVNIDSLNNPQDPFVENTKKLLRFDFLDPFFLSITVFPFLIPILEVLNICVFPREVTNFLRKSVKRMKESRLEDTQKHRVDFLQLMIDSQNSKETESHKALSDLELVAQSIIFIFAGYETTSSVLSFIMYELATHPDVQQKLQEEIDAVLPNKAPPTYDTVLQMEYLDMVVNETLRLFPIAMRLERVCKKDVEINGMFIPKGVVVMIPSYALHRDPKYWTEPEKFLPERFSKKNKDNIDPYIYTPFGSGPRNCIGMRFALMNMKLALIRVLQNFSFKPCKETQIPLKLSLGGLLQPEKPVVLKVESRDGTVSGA
Chain of Voltage-gated inwardly rectifying potassium channel KCNH2 (Q12809 whole entry): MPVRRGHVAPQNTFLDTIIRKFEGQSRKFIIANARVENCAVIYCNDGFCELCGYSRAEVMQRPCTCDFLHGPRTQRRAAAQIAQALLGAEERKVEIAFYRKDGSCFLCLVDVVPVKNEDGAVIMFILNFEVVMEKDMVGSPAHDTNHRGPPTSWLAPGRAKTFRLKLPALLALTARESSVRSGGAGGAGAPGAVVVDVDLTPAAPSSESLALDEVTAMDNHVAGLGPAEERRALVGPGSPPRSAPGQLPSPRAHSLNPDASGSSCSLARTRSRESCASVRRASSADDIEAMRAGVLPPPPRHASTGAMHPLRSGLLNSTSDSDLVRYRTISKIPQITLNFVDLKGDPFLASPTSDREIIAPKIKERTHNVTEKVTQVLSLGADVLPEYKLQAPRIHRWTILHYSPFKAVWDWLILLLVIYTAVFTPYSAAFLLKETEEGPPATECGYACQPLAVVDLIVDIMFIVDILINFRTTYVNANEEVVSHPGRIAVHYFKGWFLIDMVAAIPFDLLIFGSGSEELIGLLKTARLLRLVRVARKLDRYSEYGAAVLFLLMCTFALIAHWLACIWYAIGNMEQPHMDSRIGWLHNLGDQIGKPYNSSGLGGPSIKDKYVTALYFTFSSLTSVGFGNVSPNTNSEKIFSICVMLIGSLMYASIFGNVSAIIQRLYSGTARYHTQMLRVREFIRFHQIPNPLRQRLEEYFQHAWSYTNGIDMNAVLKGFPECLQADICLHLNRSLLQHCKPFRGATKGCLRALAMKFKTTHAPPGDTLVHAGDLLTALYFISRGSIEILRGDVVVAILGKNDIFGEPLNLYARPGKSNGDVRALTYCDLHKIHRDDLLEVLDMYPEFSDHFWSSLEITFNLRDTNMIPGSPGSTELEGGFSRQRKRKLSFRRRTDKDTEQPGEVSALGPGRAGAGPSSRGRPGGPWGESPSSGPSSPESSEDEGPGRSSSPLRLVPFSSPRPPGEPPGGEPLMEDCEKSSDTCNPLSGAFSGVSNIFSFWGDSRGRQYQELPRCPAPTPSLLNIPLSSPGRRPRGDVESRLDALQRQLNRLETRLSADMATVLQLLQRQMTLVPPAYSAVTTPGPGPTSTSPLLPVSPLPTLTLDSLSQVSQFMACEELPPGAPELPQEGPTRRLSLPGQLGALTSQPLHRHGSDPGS
Chain of CYP2D6 (P10635 whole entry): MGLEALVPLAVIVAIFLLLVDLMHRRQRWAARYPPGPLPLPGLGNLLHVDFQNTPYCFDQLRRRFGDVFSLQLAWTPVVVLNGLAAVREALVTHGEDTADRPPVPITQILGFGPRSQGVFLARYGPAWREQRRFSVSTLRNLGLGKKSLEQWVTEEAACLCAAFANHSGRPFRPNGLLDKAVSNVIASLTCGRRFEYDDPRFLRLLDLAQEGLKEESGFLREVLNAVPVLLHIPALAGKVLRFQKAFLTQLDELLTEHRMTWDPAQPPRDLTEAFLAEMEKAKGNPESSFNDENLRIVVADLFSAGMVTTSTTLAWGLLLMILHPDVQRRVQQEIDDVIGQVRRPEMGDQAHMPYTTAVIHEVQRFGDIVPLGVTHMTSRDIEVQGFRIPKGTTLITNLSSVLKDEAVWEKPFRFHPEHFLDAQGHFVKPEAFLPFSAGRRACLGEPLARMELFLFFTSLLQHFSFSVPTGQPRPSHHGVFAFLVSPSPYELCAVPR

For `Cc1nn(C2(CC#N)CN(S(=O)(=O)C(C)C)C2)cc1-c1ncnc2[nH]ccc12`, which IC50 [1] is on record?
The IC50 was over 30 µM.

What about the IC50 (CYP2D6) of the same compound?
The IC50 was over 10 µM.

What about the IC50 (CYP3A4) of the same compound?
Its IC50 is over 10 µM.

What about the IC50 (Cytochrome P450 1A2) of the same compound?
The IC50 was over 10 µM.
